ChEMBL document CHEMBL1129930, “Analogues of methotrexate in rheumatoid arthritis. 2. Effects of 5-deazaaminopterin, 5,10-dideazaaminopterin, and analogues on type II collagen-induced arthritis in mice” (J Med Chem, 1997)

Experiments:
Mus musculus [1] = test: Incidence of disease (mouse type II collagen) was scored as the percentage of animals within each experimental group that exhibited joint or limb inflammation on day 23 at intraperitoneal dose of 18 mg/kg; format: functional
Mus musculus [2] = test: Tested for antiinflammatory activity on mouse type II collagen arthritis as Paw swelling of all animals in each group on day 37 at intraperitoneal dose of 12 mg/kg; format: functional
Mus musculus [3] = test: Tested for antiinflammatory activity on mouse type II collagen arthritis as Paw swelling of all animals in each group on day 23 at intraperitoneal dose of 12 mg/kg; format: functional
Mus musculus [4] = test: Tested for antiinflammatory activity on mouse type II collagen arthritis as Paw swelling of all animals in each group on day 44 at intraperitoneal dose of 6 mg/kg; format: functional
Mus musculus [5] = test: Incidence of disease (mouse type II collagen) was scored as the percentage of animals within each experimental group that exhibited joint or limb inflammation on day 44 at intraperitoneal dose of 12 mg/kg; format: functional
Mus musculus [6] = test: Tested for antiinflammatory activity on mouse type II collagen arthritis as Paw swelling of all animals in each group on day 23 at intraperitoneal dose of 6 mg/kg; format: functional
Mus musculus [7] = test: Incidence of disease (mouse type II collagen) was scored as the percentage of animals within each experimental group that exhibited joint or limb inflammation on day 44 at intraperitoneal dose of 18 mg/kg; format: functional
Mus musculus [8] = test: Tested for antiinflammatory activity on mouse type II collagen arthritis as Paw swelling of all animals in each group on day 44 at intraperitoneal dose of 12 mg/kg; format: functional
Mus musculus [9] = test: Incidence of disease (mouse type II collagen) was scored as the percentage of animals within each experimental group that exhibited joint or limb inflammation on day 37 at intraperitoneal dose of 12 mg/kg; format: functional
Mus musculus [10] = test: Tested for antiinflammatory activity on mouse type II collagen arthritis as Paw swelling of all animals in each group on day 23 at intraperitoneal dose of 18 mg/kg; format: functional
Mus musculus [11] = test: Incidence of disease (mouse type II collagen) was scored as the percentage of animals within each experimental group that exhibited joint or limb inflammation on day 30 at intraperitoneal dose of 12 mg/kg; format: functional
Mus musculus [12] = test: Incidence of disease (mouse type II collagen) was scored as the percentage of animals within each experimental group that exhibited joint or limb inflammation on day 44 at intraperitoneal dose of 6 mg/kg; format: functional
[13] = Concentration required to inhibit the growth of chang liver cells.; format: functional; settings: Homo sapiens
Mus musculus [14] = test: Incidence of disease (mouse type II collagen) was scored as the percentage of animals within each experimental group that exhibited joint or limb inflammation on day 37 at intraperitoneal dose of 18 mg/kg; format: functional
Mus musculus [15] = test: Tested for antiinflammatory activity on mouse type II collagen arthritis as Paw swelling of all animals in each group on day 30 at intraperitoneal dose of 18 mg/kg; format: functional
Mus musculus [16] = test: Incidence of disease (mouse type II collagen) was scored as the percentage of animals within each experimental group that exhibited joint or limb inflammation on day 23 at intraperitoneal dose of 12 mg/kg; format: functional
Mus musculus [17] = test: Tested for antiinflammatory activity on mouse type II collagen arthritis as Paw swelling of all animals in each group on day 30 at intraperitoneal dose of 12 mg/kg; format: functional
Mus musculus [18] = test: Incidence of disease (mouse type II collagen) was scored as the percentage of animals within each experimental group that exhibited joint or limb inflammation on day 37 at intraperitoneal dose of 6 mg/kg; format: functional
L1210 = test: Concentration required to inhibit the growth of L1210 cells.; format: functional, cell-based; settings: Mus musculus
Mus musculus [19] = test: Tested for antiinflammatory activity on mouse type II collagen arthritis as Paw swelling of all animals in each group on day 44 at intraperitoneal dose of 18 mg/kg; format: functional
Mus musculus [20] = test: Tested for antiinflammatory activity on mouse type II collagen arthritis as Paw swelling of all animals in each group on day 30 at intraperitoneal dose of 6 mg/kg; format: functional
Mus musculus [21] = test: Tested for antiinflammatory activity on mouse type II collagen arthritis as Paw swelling of all animals in each group on day 37 at intraperitoneal dose of 6 mg/kg; format: functional
Mus musculus [22] = test: Incidence of disease (mouse type II collagen) was scored as the percentage of animals within each experimental group that exhibited joint or limb inflammation on day 23 at intraperitoneal dose of 6 mg/kg; format: functional
Mus musculus [23] = test: Tested for antiinflammatory activity on mouse type II collagen arthritis as Paw swelling of all animals in each group on day 37 at intraperitoneal dose of 18 mg/kg; format: functional
Mus musculus [24] = test: Incidence of disease (mouse type II collagen) was scored as the percentage of animals within each experimental group that exhibited joint or limb inflammation on day 30 at intraperitoneal dose of 6 mg/kg; format: functional
Mus musculus [25] = test: Incidence of disease (mouse type II collagen) was scored as the percentage of animals within each experimental group that exhibited joint or limb inflammation on day 30 at intraperitoneal dose of 18 mg/kg; format: functional

For `Nc1nc(N)c2cc(CCc3ccc(C(=O)NC(CCC(=O)O)C(=O)O)cc3)cnc2n1` (stereo unspecified), the Animals (Mus musculus [1]) was 12%, the Paw swelling (Mus musculus [2]) was 2.24 mm and the Paw swelling (Mus musculus [3]) was 2.12 mm. The Paw swelling (Mus musculus [4]) was 2.29 mm, the Animals (Mus musculus [5]) was 25% and the Paw swelling (Mus musculus [6]) was 2.17 mm. For the same compound, the Animals (Mus musculus [7]) was 0%, the Paw swelling (Mus musculus [8]) was 2.28 mm and the Animals (Mus musculus [9]) was 12%. The Paw swelling (Mus musculus [10]) was 2.15 mm, the Animals (Mus musculus [11]) was 12% and the Animals (Mus musculus [12]) was 38%. The IC50 [13] was 0.037 µM, the Animals (Mus musculus [14]) was 0% and the Paw swelling (Mus musculus [15]) was 2.16 mm. The Animals (Mus musculus [16]) was 0%, the Paw swelling (Mus musculus [17]) was 2.24 mm and the Animals (Mus musculus [18]) was 25%. It also gave an IC50 (L1210) of 0.027 µM, a Paw swelling (Mus musculus [19]) of 2.2 mm and a Paw swelling (Mus musculus [20]) of 2.28 mm. The Paw swelling (Mus musculus [21]) was 2.26 mm, the Animals (Mus musculus [22]) was 12% and the Paw swelling (Mus musculus [23]) was 2.15 mm. For the same compound, the Animals (Mus musculus [24]) was 25% and the Animals (Mus musculus [25]) was 0%.
